Data as given in ChEMBL document CHEMBL1151566, “Cephem sulfones as inactivators of human leukocyte elastase. II. Keto-enol tautomerish in cephem-4-ketones” (Bioorg Med Chem Lett, 1992).

How the values were obtained:
[1] = target: T1, Neutrophil elastase (Homo sapiens) (UniProt P08246); test: Inhibition of human leukocyte elastase II (HLE-II) as second order rate constant
T1 sequence (whole entry): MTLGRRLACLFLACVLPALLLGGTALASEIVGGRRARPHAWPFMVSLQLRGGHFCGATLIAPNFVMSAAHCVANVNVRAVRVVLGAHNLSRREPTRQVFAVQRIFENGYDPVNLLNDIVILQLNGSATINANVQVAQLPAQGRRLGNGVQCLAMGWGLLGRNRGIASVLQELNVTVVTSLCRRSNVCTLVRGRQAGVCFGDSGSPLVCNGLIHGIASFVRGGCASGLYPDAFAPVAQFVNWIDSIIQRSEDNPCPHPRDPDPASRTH

[2] = Chemical half-life was evaluated at 37 degree C expressed as stability towards hydrolysis; type: physicochemical
[3] = pKa value was determined; type: physicochemical

Row | k on [1] [M⁻¹ s⁻¹] | half-life [2] [h] | pKa [3] | Compound
1 | 930 | 86 | 5.7 | CO[C@H]1C(=O)N2C(C(=O)c3ccccc3)=C(C)C(Sc3nc(=O)c(=O)[nH]n3C)S(=O)(=O)[C@H]12 (some centres not stated)
2 | – | 24 | 6 | CO[C@H]1C(=O)N2C(C(=O)C(C)(C)C)=C(CSc3nnnn3C)C(Sc3nnnn3C)S(=O)(=O)[C@H]12 (some centres not stated)
3 | 200 | 120 | 4.8 | CO[C@H]1C(=O)N2C(C(=O)c3ccccc3)=C(C)C(Sc3nnnn3C)S(=O)(=O)[C@H]12 (some centres not stated)
4 | 42000 | 26 | 7.5 | CO[C@H]1C(=O)N2C(C(=O)C(C)(C)C)=C(C)C(Sc3nnc(C)s3)S(=O)(=O)[C@H]12 (some centres not stated)
5 | – | 130 | – | CO[C@H]1C(=O)N2C(C(=O)C(C)(C)C)=C(C)CS(=O)(=O)[C@H]12
6 | – | 33 | 9.6 | CO[C@H]1C(=O)N2C(C(=O)c3ccccc3)=C(C)CS(=O)(=O)[C@H]12
7 | 54000 | 16.3 | 8.9 | CO[C@H]1C(=O)N2C(C(=O)C(C)(C)C)=C(C)C(Sc3nc(=O)c(=O)[nH]n3C)S(=O)(=O)[C@H]12 (some centres not stated)
8 | 21000 | 46 | 5.8 | CO[C@H]1C(=O)N2C(C(=O)C(C)(C)C)=C(CSc3nnc(C)s3)C(Sc3nnc(C)s3)S(=O)(=O)[C@H]12 (some centres not stated)
9 | – | 850 | 3.5 | CO[C@H]1C(=O)N2C(C(=O)c3ccccc3)=C(CSc3nnnn3C)C(Sc3nnnn3C)S(=O)(=O)[C@H]12 (some centres not stated)
10 | – | 8.6 | 8.4 | CO[C@H]1C(=O)N2C(C(=O)c3ccccc3)=C(CSc3nnnn3C)CS(=O)(=O)[C@H]12
11 | 32000 | 37 | 11.9 | CO[C@H]1C(=O)N2C(C(=O)C(C)(C)C)=C(CSc3nnc(C)s3)CS(=O)(=O)[C@H]12
12 | – | 24 | 11.6 | CO[C@H]1C(=O)N2C(C(=O)C(C)(C)C)=C(CSc3nnnn3C)CS(=O)(=O)[C@H]12
13 | 100000 | 14.8 | 7.9 | CO[C@H]1C(=O)N2C(C(=O)C(C)(C)C)=C(C)C(Sc3nnnn3C)S(=O)(=O)[C@H]12 (some centres not stated)
